One series deals with T1, human aromatase (Homo sapiens, UniProt P11511).
T1 construct: The enzyme preparation was used without further purification; from tissue; host or cells: human placenta, microsomal fraction (100000×g precipitate)
T1 sequence (P11511 1-503): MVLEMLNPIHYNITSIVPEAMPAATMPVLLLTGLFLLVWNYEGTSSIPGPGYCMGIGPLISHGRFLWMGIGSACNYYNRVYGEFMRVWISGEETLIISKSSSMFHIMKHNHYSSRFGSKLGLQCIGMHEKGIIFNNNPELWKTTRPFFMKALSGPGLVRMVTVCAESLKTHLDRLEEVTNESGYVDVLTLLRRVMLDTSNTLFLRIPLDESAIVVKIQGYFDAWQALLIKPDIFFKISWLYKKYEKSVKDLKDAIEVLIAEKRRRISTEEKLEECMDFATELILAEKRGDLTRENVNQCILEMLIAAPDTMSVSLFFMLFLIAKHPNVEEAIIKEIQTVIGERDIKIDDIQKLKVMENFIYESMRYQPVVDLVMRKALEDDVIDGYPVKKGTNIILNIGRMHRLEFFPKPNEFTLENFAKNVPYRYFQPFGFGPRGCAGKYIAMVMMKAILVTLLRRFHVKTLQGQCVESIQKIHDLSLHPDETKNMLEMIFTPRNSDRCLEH
Nature of the series: In vitro inhibition of human placental aromatase (3H2O release from 1,2[3H]-androstene-3,17-dione). The class given is biochemical. To be noted: for IC10: 40 min, read-out: AROMATASE IC-10; for IC90: read-out: AROMATASE IC-90.

The next series concerns desmolase. Description: Cholesterol side-chain cleavage (desmolase, P450 scc) inhibition. Conditions: read-out: DESMOLASE IC-50; Table 2; 30 min at 37° C.; human placenta or bovine adrenals as enzyme source, table title says human.
A further series concerns α2. Conditions: described in EP-194984; cited from earlier work.

Where two headings read alike, the source gives them in different places. Bounds are passed on as bounds.

Experimental for human aromatase: Human aromatase enzyme was used. The enzyme was prepared from human placenta, which is rich in the enzyme. Microsomal fraction (100000×g precipitate) was prepared by centrifugation. The enzyme preparation was used without further purification. Test compounds listed in Table 1 were added with 100000 dpm of 1,2[^3 H]-androstene-3,17-dione and NADPH generating system. The concentrations of the test compounds were 0,001; 0,01; 0,1 and 1,0 mM. The incubation was carried out at 37° C. for 40 min. Aromatization of 1,2[^3 H]-androstene-3,17-dione results in the production of ^3 H2 O. The tritiated water and the tritiated substrate are easily separated by a Sep-Pak® minicolumn, which absorbs the steroid but allows free water elution. Radioactivity was counted by a liquid scintillation counter. Aromatase inhibition was evaluated by comparing the ^3 H2 O-radioactivity of inhibitor treated samples to controls containing no inhibitor. IC-10, IC-50 and IC-90 values were calculated as concentrations which inhibited the enzyme activity 10%, 50% and 90%, respectively.

Take `c1ccc(Cn2cncc2CCC(c2ccccc2)c2ccccc2)cc1` [Compound 10, 1-benzyl-5-(3,3-diphenylpropyl)-1H-imidazole]: at human aromatase, the IC10 is ~0.6 µM and the IC90 was 100 µM. Besides, the IC50 on human aromatase (read-out: AROMATASE IC-50) came to 4 µM.
Consider `Fc1ccc(C(CCc2c[nH]cn2)c2ccccc2)cc1` (centres unmarked) [Compound 26, 4-[3-(4-fluorophenyl)-3-phenylpropyl]-1H-imidazole], for which the IC50 in the series with desmolase is 440 µM.
On to `Cc1cccc(C(=CCc2c[nH]cn2)c2cccc(C)c2)c1` [Compound 12], for which, at human aromatase, the IC50 was determined as 62 µM, the IC10 was 1 µM and the IC90 came out at 1000 µM.
The like results for `C(Cc1c[nH]cn1)=C(c1ccccc1)c1ccccc1` [Compound 4] were, in that order, 6 µM, < 1 µM and 100 µM.
In turn, `C(Cc1cncn1Cc1ccccc1)=C(c1ccccc1)c1ccccc1` [Compound 20] displayed an IC50 on human aromatase of 50 µM.
For the compound `Cc1ccc(C(CCc2c[nH]cn2)c2ccc(C)cc2)cc1` [Compound 18, 4-[3,3-bis(4-methylphenyl)propyl]-1H-imidazole], the IC50 in the series with desmolase was found to be 48 µM.
For the compound `COc1cccc(C(=CCc2cncn2Cc2ccccc2)c2cccc(OC)c2)c1` [Compound 16], the IC50 against human aromatase was 14 µM.
Consider `Cc1ccccc1C(O)(CCc1c[nH]cn1)c1ccccc1C` [Compound 6, 4-[3,3-bis(2-methylphenyl)-3-hydroxpropyl]-1H-imidazole], for which, on human aromatase, the IC50 came to 300 µM, the IC10 is 15 µM and the IC90 was > 1000 µM.
The like results for `Cc1ccccc1C(=CCc1c[nH]cn1)c1ccccc1C` [Compound 8] were, in that order, 80 µM, 1.5 µM and > 1000 µM.
Consider `Fc1cccc(C(CCc2c[nH]cn2)c2cccc(F)c2)c1` [Compound 19, 4-[3,3-bis(3-fluorophenyl)propyl]-1H-imidazole], for which the IC50 in the series on desmolase was 20 µM.
For the compound `C(=CC(c1ccccc1)c1ccccc1)c1cncn1Cc1ccccc1` [Compound 28, 1-benzyl-5-(3,3-diphenylpropen-1-yl)-1H-imidazole], the IC50 at human aromatase (read-out: AROMATASE IC-50) stood at 14 µM.
With `COc1ccc(C(CCc2c[nH]cn2)c2ccc(OC)cc2)cc1` [Compound 22, 4-[3,3-bis(4-methoxyphenyl)propyl]-1H-imidazole], the IC50 with desmolase was determined as 26 µM.
For the compound `Cc1cccc(C(CCc2c[nH]cn2)c2cccc(C)c2)c1` [Compound 11, 4-[3,3-bis(3-methylphenyl)propyl]-1H-imidazole], in the series on desmolase, the IC50 is 29 µM.
Turning to `OC(CCc1c[nH]cn1)(c1ccc(Cl)cc1)c1ccc(Cl)cc1` [Compound 2, 4-[3,3-bis(4-chlorophenyl)-3-hydroxypropyl]-1H-imidazole], on human aromatase, the IC10 was found to be 4 µM and the IC90 turned out to be 1000 µM. In addition, the IC50 on human aromatase (read-out: AROMATASE IC-50) was determined as 60 µM.
On to `Cc1ccc(C(CCc2c[nH]cn2)c2ccccc2)cc1` (centres unmarked) [Compound 24, 4-[3-(4-methylphenyl)-3-phenylpropyl]-1H-imidazole], for which the IC50 with desmolase stood at 50 µM.
Take `c1ccc(C(Cc2c[nH]cn2)c2ccccc2)cc1` [4-(2,2-diphenylethyl)-1H-imidazole]: the α2-blocking properties entry in the series with α2 is reported as “selective α2 -blocking properties”.
In the case of `COc1ccccc1C(CCc1c[nH]cn1)c1ccccc1OC` [Compound 25, 4-[3,3-bis(2-methoxyphenyl)propyl]-1H-imidazole], the IC50 at human aromatase (read-out: AROMATASE IC-50) was 8.6 µM.
Same read-out and setting: the result for `COc1cccc(C(CCc2c[nH]cn2)c2cccc(OC)c2)c1` [Compound 13, 4-[3,3-bis(3-methoxyphenyl)propyl]-1H-imidazole] reads 3 µM.
In the case of `OC(CCc1c[nH]cn1)(c1ccccc1)c1ccccc1` [Compound 3, 4-(3,3-diphenyl-3-hydroxypropyl)-1H-imidazole], at human aromatase, the IC10 came to 4 µM and the IC90 is 1000 µM. Also, the IC50 on human aromatase (read-out: AROMATASE IC-50) stood at 70 µM.
With `COc1cccc(C(CCc2cncn2Cc2ccccc2)c2cccc(OC)c2)c1` [Compound 15, 1-benzyl-5-[3,3-bis(3-methoxyphenyl)propyl]-1H-imidazole], on human aromatase (read-out: AROMATASE IC-50), the IC50 was 4 µM.
Consider `Fc1ccc(C(CCc2c[nH]cn2)c2ccc(F)cc2)cc1` [Compound 27, 4-[3,3-bis(4-fluorophenyl)propyl]-1H-imidazole], for which the IC50 with desmolase is 30 µM.
As to `Cc1cc(C)cc(C(CCc2c[nH]cn2)c2cc(C)cc(C)c2)c1` [Compound 17, 4-[3,3-bis(3,5-dimethylphenyl)propyl]-1H-imidazole], the IC50 at human aromatase (read-out: AROMATASE IC-50) turned out to be 130 µM.
For the compound `c1ccc(CCC(CCc2cncn2Cc2ccccc2)c2ccccc2)cc1` (centres unmarked) [Compound 21, 1-benzyl-5-(3,5-diphenylpentyl)-1H-imidazole], on human aromatase (read-out: AROMATASE IC-50), the IC50 stood at 17 µM.
As for `Cc1cccc(C)c1CCC(O)(CCc1c[nH]cn1)CCc1c(C)cccc1C` [Compound 1, 4-[5-(2,6-dimethylphenyl)-3-hydroxy-3-(2,6-dimethylphenylethyl)pentyl]-1H-imidazole], at human aromatase, the IC10 is 20 µM and the IC90 is > 1000 µM. On human aromatase (read-out: AROMATASE IC-50), the IC50 amounted to 1000 µM.
Turning to `Clc1ccc(C(=CCc2c[nH]cn2)c2ccc(Cl)cc2)cc1` [Compound 7], at human aromatase, the IC50 was determined as 35 µM, the IC10 came to 2 µM and the IC90 came to 600 µM.
On to `Cc1cccc(C(CCc2c[nH]cn2)c2cccc(C)c2C)c1C` [Compound 14, 4-[3,3-bis(2,3-dimethylphenyl)propyl]-1H-imidazole], for which the IC50 at human aromatase (read-out: AROMATASE IC-50) amounted to 44 µM.

Values taken from patent publication US5098923A, “Aromatase inhibiting 4(5)-imidazoles” (Farmos-Yhtyma Oy, priority 1987, dated 1992).
